PubChem BioAssay (NCI)
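Grown in 96-well plates, cells were treated for 48 hours with each compound at five concentrations. Insufficient inhibition: endpoint recorded as highest concentration tested. Here, GI50 denotes the concentration required for 50% inhibition of growth. Definition used: TGI = concentration required for complete inhibition of growth.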 Where a SMILES comes first, the peptide text is derived from it. [ ]: non-standard residue; d: D form. The star is where a group is joined. ξ: configuration not given here. 4Abz = Nc1ccc(C(=O)O)cc1; ξL = CC(C)CC(N)C(=O)O; NHOH = ON*

Columns and labels:
Experiment in all cases: inhibition of tumour cell growth, NCI panel, 48 h
CAKI-1 renal = system: CAKI-1 renal
CCRF-CEM leukemia = system: CCRF-CEM leukemia
COLO 205 colon = system: COLO 205 colon
MOLT-4 leukemia = system: MOLT-4 leukemia
OVCAR-3 ovarian = system: OVCAR-3 ovarian
OVCAR-5 ovarian = system: OVCAR-5 ovarian
RXF 393 renal = system: RXF 393 renal
SF-295 CNS = system: SF-295 CNS
SK-MEL-2 melanoma = system: SK-MEL-2 melanoma
A498 renal = system: A498 renal

SMILES	GI50 (CAKI-1 renal) [µM]	TGI (CAKI-1 renal) [µM]	GI50 (CCRF-CEM leukemia) [µM]	TGI (CCRF-CEM leukemia) [µM]	GI50 (COLO 205 colon) [µM]	TGI (COLO 205 colon) [µM]	GI50 (MOLT-4 leukemia) [µM]	TGI (MOLT-4 leukemia) [µM]	GI50 (OVCAR-3 ovarian) [µM]	TGI (OVCAR-3 ovarian) [µM]	GI50 (OVCAR-5 ovarian) [µM]	TGI (OVCAR-5 ovarian) [µM]	GI50 (RXF 393 renal) [µM]	TGI (RXF 393 renal) [µM]	GI50 (SF-295 CNS) [µM]	TGI (SF-295 CNS) [µM]	GI50 (SK-MEL-2 melanoma) [µM]	TGI (SK-MEL-2 melanoma) [µM]	GI50 (A498 renal) [µM]	TGI (A498 renal) [µM]
COc1ccc(-n2cc(-c3ccc(Cl)cc3)[nH]c2=S)cc1Cl	24.3	56.7	60.6	> 100	> 100	> 100	43	> 100	31.8	> 100	> 100	> 100	25.6	54.1	22	57.7	82.1	> 100		
CC(=O)NC1=NC(=O)/C(=C/c2ccc(Cl)cc2Cl)N1C		> 100		34.8		> 100		81.4		> 100		> 100		> 100		> 100		> 100		
OCCOCn1nc(-c2ccccc2)nc1-c1cnccn1				> 100		> 100		> 100		> 100		> 100		> 100		> 100				
O=C(CC1Sc2ccccc2NC1=O)Nc1ccc([N+](=O)[O-])cc1[N+](=O)[O-] (stereo not given)				39.6		> 100		62.6		31.5		62.3		26.3		34.2		46.5		
O=C(CCCCCn1c2ccccc2c2c3c(c4c5ccccc5[nH]c4c21)C(=O)N(O)C3=O)N1CCOCC1	2.13	4.81	1.43	4.93	2.3	5.65	1.88	5.36			3.49	> 100	1.81	3.37			2.4	5.47	1.29	2.7
COC(=O)C(=O)C(C(=O)C(=O)Nc1ccc(Cl)cc1Cl)c1nc2ccc(Cl)cc2[nH]c1=O (stereo not given)		> 100		> 100		> 100		> 100		> 100		> 100				> 100		> 100		
Cc1cccc2c1NC(c1c(C)[nH]c3ccccc13)C2 (stereo not given)				> 100		> 100		> 100		> 100		> 100		> 100		> 100		> 100		> 100
COc1ccc(/C=N\N2C(=O)Cc3ccccc32)cc1		> 100		> 100		> 100		> 100		> 100		> 100				> 100		> 100		> 100
COc1ccc(-c2ccc(/C=N/n3cnn(CN4CCN(C)CC4)c3=S)o2)c([N+](=O)[O-])c1			11.6	94.7	52.8	> 100	31.2	> 100	26.7	66.9	34	> 100	24.4	> 100			> 100	> 100		
Cc1c(Br)cccc1NC(=O)c1sc2nc3c(cc2c1N)CN(Cc1ccccc1)CC3			0.182	> 50			0.409	> 50	0.157	0.773	0.289	> 50	0.123	0.402	0.129	9.42	0.231	15.1	0.186	3.89
NC(N)=Nc1nc2cc(N)ccc2o1		> 100		> 100				> 100								> 100		> 100		> 100
CC(C)n1c2c(c3ccccc3c1=O)C(=O)c1ccccc1-2		> 100		> 100		> 100		> 100		> 100		> 100				> 100		> 100		> 100
N#CC1(Cc2ccccc2Cl)c2ccccc2C=CN1C(=O)c1ccccc1 (stereo not given)				> 100		> 100		> 100		> 100		> 100		> 100		> 100		> 100		> 100
COc1cc(C2CC(c3ccc(C)cc3)=NN2C(C)=O)ccc1Oc1ccnc2cc(Cl)ccc12 (stereo not given)			> 100	> 100	> 100	> 100	> 100	> 100	> 100	> 100	> 100	> 100	3.57	> 100	2.52	> 100	15.8	43.2	13.1	78
CN1CCN(c2nc(NCCNc3ccnc4cc(Cl)ccc34)c3ccccc3n2)CC1			0.527	4.84	0.974	2.33	1.63	6.36	2.21	7.44	3.35	13.3	1.46	3.46	1.79	3.45	1.98	4.19	12.3	25.5
COc1cc(C=C2C(=O)OC(C)(C)OC2=O)cc(OC)c1OC		> 100		> 100		> 100		> 100		> 100		> 100		> 100		> 100		> 100		
Cn1c(=O)c(C2c3ccccc3Oc3c2c(=O)n(C)c2ccccc32)c(O)c2ccccc21 (stereo not given)		> 100				> 100		> 100		> 100		> 100		> 100		> 100		> 100		
COc1cc(OC)c(Oc2cccc(OC)c2OC)c(OC)c1		> 100		> 100		> 100		> 100		> 100		> 100				> 100		> 100		> 100
COC(=O)CC[C@@H](NC(=O)C(C)NC(=O)COC1C(O)C(COC(=O)CCCCCCCCCCNC(=O)c2ccc([N+](=O)[O-])c3[nH]c4cc(Br)ccc4c(=O)c23)OC(OCc2ccccc2)C1NC(C)=O)C(N)=O (stereo not given in full)		> 100		> 100		> 100		> 100		> 100		> 100		80.3		> 100		> 100		
COc1ccc(OC)c(-c2cc(-c3ccc(Cl)cc3)nn2-c2ccc(S(N)(=O)=O)cc2)c1	11.2	29.3					3.52	> 100	22.1	39.8	12.8	28.7			17.2	44.4	35.1	> 100	13.9	29.7

SMILES	GI50 (CAKI-1 renal) [µM]	TGI (CAKI-1 renal) [µM]	GI50 (CCRF-CEM leukemia) [µM]	TGI (CCRF-CEM leukemia) [µM]	GI50 (COLO 205 colon) [µM]	TGI (COLO 205 colon) [µM]	GI50 (MOLT-4 leukemia) [µM]	TGI (MOLT-4 leukemia) [µM]	GI50 (OVCAR-3 ovarian) [µM]	TGI (OVCAR-3 ovarian) [µM]	GI50 (OVCAR-5 ovarian) [µM]	TGI (OVCAR-5 ovarian) [µM]	GI50 (RXF 393 renal) [µM]	TGI (RXF 393 renal) [µM]	GI50 (SF-295 CNS) [µM]	TGI (SF-295 CNS) [µM]	GI50 (SK-MEL-2 melanoma) [µM]	TGI (SK-MEL-2 melanoma) [µM]	GI50 (A498 renal) [µM]	TGI (A498 renal) [µM]
NC(=O)c1ncn(C2CCC(CP(=O)(O)O)C2)c1N (stereo not given)		> 100				> 100		> 100		> 100		> 100		> 100		> 100		> 100		
CC(C)(C)NC(=O)C12C3C4C1C1C2C3C41I (stereo not given)		> 100		> 100		> 100		> 100				> 100				> 100		> 100		> 100
CCOc1cccc2cccnc12				> 100		> 100		> 100		> 100		> 100		> 100		> 100				
COc1ccc(/C(C#N)=C/c2nc3c(N4CCOCC4)nc(Cl)nc3n2C)cc1OC	< 0.01	1.38	< 0.01	0.146	0.0172	0.0424	0.0251	2.89	< 0.01	< 0.01	< 0.0171	2.32			< 0.01	2.17	< 0.0228	1.27	< 0.01	< 0.01
Cn1c(=O)c2[nH]c(Nc3ccccc3)nc2n(C)c1=O		> 10		> 10		> 10		> 10						> 10		> 10				
O=C1/C=C(/c2ccc(O)cc2)[C@H](O)Cc2ccc(OC3OC(CO)C(O)C(O)C3O)cc2O1 (stereo not given in full) (tested in a mixture with another compound)		> 100				> 100				> 100		> 100				> 100		> 100		> 100
COc1ccc2c(c1)C(CCN)C(=O)N2 (stereo not given)		> 100		> 100		> 100		> 100		> 100		> 100				> 100		> 100		> 100
Cc1cc(C)c(-c2noc(-c3ccc(Cl)cc3)c2C2=NCCN2)c(C)c1		> 100		74.7		35.2		41.3		44.7		> 100		45.1		27.6		43.8		
N#CC1=C(N)NC(=S)NC1c1ccc(-c2ccc(-c3nc4ccccc4s3)cc2)o1 (stereo not given)	35.3	> 50			17.4	> 50			> 50	> 50	> 50	> 50			26.9	> 50	41	> 50		
C=C1c2c(C)nn(-c3ccccc3)c2N(C)C23C[C@@H]1C1(C)c4c(C)nn(-c5ccccc5)c4N(C)C(C)(C[C@H]12)C3 (stereo not given in full)									4.58	> 100	> 100	> 100	2.04	6.39			6.78	22	4.28	45.9
COc1ncn(C2C=C(CO)C(O)C2O)c(=O)n1 (stereo not given)						> 100		> 100		> 100				> 100				> 100		> 100
COc1ccccc1NC(=O)CC(=O)NNCC(=O)Nc1nc(-c2ccccc2)cs1				> 100		> 100		> 100		> 100				> 100		> 100				
Nc1nc(Cl)cc2c1ncn2C1OC(CO)C(O)C1O (stereo not given)			> 100	> 100	> 100	> 100	> 100	> 100	> 100	> 100	> 100	> 100	> 100	> 100			> 100	> 100	> 100	> 100
Cc1ccc(NC(=O)C(=O)C2C(=O)C3=C(CC2(C)C)NC2C=CC=CC2S3)c(C)c1 (stereo not given)		> 100		> 100		> 100		> 100						> 100		> 100		> 100		
CC(C)CC(NC(=O)[C@@H]1CCCN1C(=O)CNC(=O)c1ccc(N)cc1)C(=O)N[C@H](C)C(=O)NO (stereo not given in full) (H-[4Abz]GP[ξL][dA]-{NHOH})	> 100	> 100			> 100	> 100	> 100	> 100	> 100	> 100	> 100	> 100	> 100	> 100	> 100	> 100	> 100	> 100		
C=CC[n+]1c(/C=C2\Sc3ccccc3N2C)sc(-c2ccccc2)c1-c1ccccc1			0.353	11.8	0.249	0.658	0.431	4.29			0.383	12.6	0.519	8.94	0.276	0.903			0.264	2.32
O=C(c1ccc(Cl)cc1)N(C(=S)N1CCN(c2ccccc2)CC1)C1CCCCC1		> 100		> 100		> 100		> 100		> 100		> 100		> 100		> 100		> 100		
CC(C)CCC[C@@H](C)C1CCC2[C@@H]3CC=C4C[C@@H](OC(=O)CCC(=O)NCC[N+](C)(C)CCCS(=O)(=O)[O-])CC[C@]4(C)C3CC[C@@]21C (stereo not given in full)		> 100		42.6		40.3		39.7		34.5				24.2		31.6		34.9		
CCOC(=O)C(=C=Cc1cccs1)C(=O)c1ccccc1				> 100		31.4		48.5				28.5				31.9		33.4		35.5
COC(=O)C1=C(SC)SC2(C(=O)OC)C3C=C(C)C4C(N13)C42C(=O)OC (stereo not given)		> 100		> 100		> 100		> 100		> 100		> 100		> 100		> 100		> 100		
